Measured values taken from patent publication US20070037752A1, “Novel alanyl-amino peptidase inhibitors for functionally influencing different cells and treating immunological, inflammatory, neuronal, and other diseases” (priority 2003, published 2007).
pIC50: −log10 of the molar value. Like-named read-outs stand apart in the source and are kept apart here.

Target: alanyl aminopeptidases (APN) (Homo sapiens, UniProt P15144)
Assay: Inhibition of alanyl aminopeptidase enzymatic activity, fluorogenic substrate (Ala)2-rhodamine 110
Format: biochemical
Experimental: The inhibition characteristics measured are referred to as IC-50 values or ID50 values (the latter marked with “*”) for said enzyme. The enzymatic activity was determined by means of the fluorogenic substrate/product (Ala)2-rhodamine 110.

[1] = Table 4, unstarred values, read-out: IC50APN
[2] = Table 3, unstarred values, read-out: IC50APN
[3] = Table 9, unstarred values, read-out: IC50APN
[4] = Table 8, unstarred values, read-out: IC50APN
[5] = Table 1, unstarred values, read-out: IC50APN
[6] = Table 5, unstarred values, read-out: IC50APN
[7] = Table 4, starred values = ID50, read-out: ID50 APN (values marked with *)

Sequence of alanyl aminopeptidases (APN) (P15144 whole entry, species assumed): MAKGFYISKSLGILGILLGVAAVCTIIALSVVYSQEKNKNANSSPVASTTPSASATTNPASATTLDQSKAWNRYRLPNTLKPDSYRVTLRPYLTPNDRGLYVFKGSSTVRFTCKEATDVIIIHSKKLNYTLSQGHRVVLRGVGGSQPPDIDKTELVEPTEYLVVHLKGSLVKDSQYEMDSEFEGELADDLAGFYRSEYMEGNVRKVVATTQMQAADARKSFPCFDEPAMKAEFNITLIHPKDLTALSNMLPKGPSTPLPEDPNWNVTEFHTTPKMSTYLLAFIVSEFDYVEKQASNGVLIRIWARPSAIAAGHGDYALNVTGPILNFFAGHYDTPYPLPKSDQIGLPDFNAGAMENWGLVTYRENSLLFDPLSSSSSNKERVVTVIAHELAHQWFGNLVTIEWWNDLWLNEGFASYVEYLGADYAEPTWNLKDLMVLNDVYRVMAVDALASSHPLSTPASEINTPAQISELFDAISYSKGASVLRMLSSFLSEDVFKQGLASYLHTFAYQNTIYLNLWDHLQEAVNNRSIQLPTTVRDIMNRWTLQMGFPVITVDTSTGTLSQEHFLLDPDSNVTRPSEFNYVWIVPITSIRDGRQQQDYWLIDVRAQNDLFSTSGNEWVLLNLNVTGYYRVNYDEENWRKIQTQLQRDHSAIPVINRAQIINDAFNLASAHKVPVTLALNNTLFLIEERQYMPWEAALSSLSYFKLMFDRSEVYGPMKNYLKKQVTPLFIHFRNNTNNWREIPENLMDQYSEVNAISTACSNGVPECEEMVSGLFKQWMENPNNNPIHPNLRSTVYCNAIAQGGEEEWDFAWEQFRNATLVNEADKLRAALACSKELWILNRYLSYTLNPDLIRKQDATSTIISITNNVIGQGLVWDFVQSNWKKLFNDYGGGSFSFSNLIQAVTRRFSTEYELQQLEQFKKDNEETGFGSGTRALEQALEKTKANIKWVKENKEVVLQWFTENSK

How did the pIC50 [1] turn out when `CC1=NNC(=O)C1CCC(=O)N/N=C\C=C\c1ccco1` (stereo not drawn) [A4.068] was run?
The pIC50 was 4.64.

`C/C(=N\NC(=O)CNC(=O)/C=C/c1ccco1)c1ccc2ccccc2c1` [A3.050] was tested. Which pIC50 [2] did it give?
The pIC50 was 4.92.

How did the pIC50 [2] turn out when `O=C1C(Cc2ccc(O)cc2)NC(=S)N1c1ccccc1` (stereo not drawn) [A3.292] was run?
Its pIC50 is 4.18.

With `Cc1ccc(Cn2c(SCCC(=O)O)nc3c2c(=O)n(C)c(=O)n3C)cc1` [A9.070] as the compound, how does the pIC50 [3] read?
Its pIC50 is 4.55.

With `O=C(Nc1ccc(N=Nc2ccccc2)cc1)c1ccc(S(=O)(=O)N2CCCC2)cc1` [A3.122] as the compound, how does the pIC50 [2] read?
Its pIC50 is 4.67.

`CC1CC(=O)N(C(=O)CCBr)c2ccc([N+](=O)[O-])cc2N1C(=O)CCBr` (stereo not drawn) [A10.008] was tested. Which pIC50 (Table 10, read-out: IC50APN) did it give?
Its pIC50 is 4.00.

How did the pIC50 (Table 11, read-out: IC50APN) turn out when `O=C(Cc1ccc(Br)c2ccccc12)N/N=C/c1ccc([N+](=O)[O-])c(O)c1` [A11.003] was run?
The pIC50 was 5.15.

`C#CCN1C(c2cnccn2)=NC(CC(C)C)C1C(=O)Nc1c(C)cccc1C` (stereo not drawn) [A3.319] was tested. Which pIC50 (Table 3, starred values = ID50, read-out: ID50 APN (values marked with *)) did it give?
The pIC50 was 3.99.

`O=C1C(Cc2ccc3[nH]ccc3c2)NC(=S)N1c1ccccc1` (stereo not drawn) [A8.029] was tested. Which pIC50 [4] did it give?
Its pIC50 is 4.43.

With `COC(=O)C1=C(C(=O)OC)C(c2cc(Br)ccc2O)c2sc(O)nc2S1` (stereo not drawn) [A9.006] as the compound, how does the pIC50 [3] read?
Its pIC50 is 5.33.

How did the pIC50 [2] turn out when `NNC(=O)Cn1c2ccccc2n2cc(-c3ccccc3)cc12` [A3.091] was run?
Its pIC50 is 4.73.

How did the pIC50 (Table 12, read-out: IC50APN) turn out when `CCOC(=O)c1ccc(-c2ccc(/C=C3\C(=O)N(CCO)C(=O)C(C#N)=C3C)o2)cc1` [A12.004] was run?
Its pIC50 is 5.57.

With `COc1nncc(-c2cnnc(SC)n2)n1` [A9.033] as the compound, how does the pIC50 [3] read?
The pIC50 was 4.84.

How did the pIC50 [3] turn out when `CCOc1cccc(/C=N/NC(=O)C2=C(C)Nc3ccccc3S2)c1O` [A9.086] was run?
The pIC50 was 4.48.

With `O=C(CCOC(c1ccccc1)c1ccc(Cl)cc1)NO` (stereo not drawn) [A1.005] as the compound, how does the pIC50 [5] read?
The pIC50 was 5.14.

`Oc1ccc(Cl)cc1/N=C/c1ccc(-c2ccc(F)cc2)o1` [A5.005] was tested. Which pIC50 [6] did it give?
The pIC50 was 4.11.

`O=C(CCOC(c1ccccc1)c1ccc(Br)cc1)NO` (stereo not drawn) [A1.003] was tested. Which pIC50 [5] did it give?
Its pIC50 is 5.20.

How did the pIC50 (Table 10, read-out: IC50APN) turn out when `C/C(=N/O)c1ccc2c(c1)OCCOCCOc1cc(/C(C)=N\O)ccc1OCCOCCO2` [A10.004] was run?
Its pIC50 is 5.07.

`Cc1cccc(C(=O)Nc2ccc(C(=O)N/N=C/c3ccc4c(c3)OCO4)cc2)c1` [A4.105] was tested. Which pIC50 [7] did it give?
Its pIC50 is 4.47.

`Cc1ccc(/C=N/NC(=O)c2ccc(F)cc2)o1` [A4.108] was tested. Which pIC50 [1] did it give?
Its pIC50 is 4.46.

How did the pIC50 [1] turn out when `O=C(COc1ccc2ccccc2c1)N/N=C/c1c(Br)cc(Br)c(O)c1Br` [A4.059] was run?
The pIC50 was 4.68.

With `Cc1nn(-c2ccccc2)c(C)c1-c1cc(C(=O)N/N=C/c2ccco2)[nH]n1` [A3.167] as the compound, how does the pIC50 [2] read?
Its pIC50 is 4.56.

With `COc1ccc2ccccc2c1-c1cc(C(=O)N/N=C(\C)c2ccco2)[nH]n1` [A3.228] as the compound, how does the pIC50 [2] read?
The pIC50 was 4.42.

With `O=C(N/C(=C\c1ccco1)C(=O)N1CCC(O)CC1)c1ccccc1` [A3.115] as the compound, how does the pIC50 [2] read?
Its pIC50 is 4.68.

How did the pIC50 [1] turn out when `O=C(COc1ccccc1)N/N=C/c1ccco1` [A4.170] was run?
The pIC50 was 4.06.

How did the pIC50 [2] turn out when `CC1=C(C#N)C(=O)N(CCCO)C(=O)/C1=C\c1ccc(-c2cc(C)c(C)cc2[N+](=O)[O-])o1` [A3.037] was run?
The pIC50 was 5.01.

With `O=C(CCc1ccccc1)N/N=C/c1ccco1` [A3.302] as the compound, how does the pIC50 [2] read?
Its pIC50 is 4.13.

How did the pIC50 [2] turn out when `Cc1ccccc1C(=O)Nc1ccc(C(=O)N/N=C/c2ccco2)cc1` [A3.246] was run?
The pIC50 was 4.34.

`O=C(COc1ccc(F)cc1)N/N=C/c1ccco1` [A3.060] was tested. Which pIC50 [2] did it give?
Its pIC50 is 4.87.

`Cc1ccc(/C=N/NC(=O)c2ccccc2Cl)o1` [A3.084] was tested. Which pIC50 [2] did it give?
The pIC50 was 4.75.

How did the pIC50 [1] turn out when `O=C(CCC(=O)Nc1ccccc1)N/N=C/c1ccco1` [A4.125] was run?
Its pIC50 is 4.39.

With `O=C(NC(Sc1ccncn1)C(=O)c1ccccc1)c1ccccc1` (stereo not drawn) [A12.045] as the compound, how does the pIC50 (Table 12, read-out: IC50APN) read?
The pIC50 was 4.57.

With `Cc1cccc(C)c1NC(=S)NC(=O)c1cccs1` [A7.007] as the compound, how does the pIC50 (Table 7, read-out: IC50APN) read?
Its pIC50 is 4.89.

`Cc1cccc(C(=O)Nc2ccc(C(=O)N/N=C/c3ccco3)cc2)c1` [A4.158] was tested. Which pIC50 [7] did it give?
The pIC50 was 4.17.

With `COc1ccc(OC)c(-c2cc(C(=O)N/N=C/c3ccco3)[nH]n2)c1` [A3.237] as the compound, how does the pIC50 [2] read?
Its pIC50 is 4.36.

With `N#CCCCCCCCCC(=O)NO` [A1.015] as the compound, how does the pIC50 [5] read?
The pIC50 was 4.09.

How did the pIC50 [7] turn out when `COc1ccc(C(=O)N/N=C\c2cc(Br)c(O)c(O)c2Br)cc1` [A4.124] was run?
Its pIC50 is 4.40.

With `CCCC1NC(=S)N(c2ccccc2)C1=O` (stereo not drawn) [A8.040] as the compound, how does the pIC50 (Table 8, starred values = ID50, read-out: ID50 APN (values marked with *)) read?
The pIC50 was 3.81.

With `O=C(Nc1cccc(/N=C/c2cc(/N=N\c3ccccc3Cl)ccc2O)c1)c1ccco1` [A5.001] as the compound, how does the pIC50 [6] read?
Its pIC50 is 5.44.

With `CC1=C(C#N)C(=O)N(CCCO)C(=O)/C1=C\c1ccc(-c2ccc(Br)cc2)o1` [A9.037] as the compound, how does the pIC50 [3] read?
The pIC50 was 4.80.

How did the pIC50 [3] turn out when `CN(C)CCCN1CCN(c2nc(N(C)CC(=O)O)c3ncn(Cc4ccc([N+](=O)[O-])cc4)c3n2)CC1` [A9.024] was run?
The pIC50 was 4.93.

How did the pIC50 [3] turn out when `N#Cc1cc(N2CC3CC(C2)c2cccc(=O)n2C3)c([N+](=O)[O-])cc1C#N` (stereo not drawn) [A9.017] was run?
Its pIC50 is 5.05.

With `O=C(Nc1ccc(N=Nc2ccccc2)cc1)c1ccc(S(=O)(=O)N2CCCC2)cc1` [A6.012] as the compound, how does the pIC50 (Table 6, read-out: IC50APN) read?
Its pIC50 is 4.67.

`Cc1ccc(/C=N/NC(=O)c2cc(C)oc2C)o1` [A3.263] was tested. Which pIC50 [2] did it give?
Its pIC50 is 4.30.

With `COC(=O)N/N=C(C)\C=C\c1ccco1` [A8.011] as the compound, how does the pIC50 [4] read?
The pIC50 was 4.87.
